Laboratory results as given in patent US12410152B2, “Oxazole and thioazole-type cullin ring ubiquitin ligase compounds and uses thereof” (Proxygen GmbH, priority 2019, dated 2025).
One block for each molecule: values may come before it.

What was measured:
UBE2M mutant KBM7 cells = test: cells; assay type: cell-based; conditions: for EC50: Homo sapiens, KBM-7, read-out: KBM7_UBE2M_mut
Procedure: (§1) KBM7 cells with the specified genetic backgrounds were grown in IMDM supplemented with 10% FBS and 1% penicillin/streptomycin (pen/strep). AsPC1, HCT116, NCI-H446 and 293T cells were grown in DMEM 10% FBS and 1% pen/strep. MV4; 11, Jurkat and Be (2) C cells were grown in RPMI 10% FBS 1% pen/strep. KBM7, AsPC1 and HCT116 cells expressing Cas9 were generated using the plasmid Lenti_Cas9_Blasti (Addgene #52962). The lentiviral plasmid lentiGuide-Puro (Addgene #52963) was used to express sgRNAs against the genes UBE2M (in KBM7-Cas9, AsPC1-Cas9 and HCT116-Cas9 cells), UBE2G1 (in KBM7-Cas9 cells) and […] (in KBM7-Cas9 cells). The lentiviral plasmid lentiGuide-Puro-IRES-mCherry (modified from Addgene #52963) was used to express sgRNAs against CUL4A (in KBM7-Cas9 cells). The lentiviral plasmid pLenti-PGK-Hygro-DEST-UBE2M was generated by Gateway cloning (empty destination vector Addgene #19066), and used to generate UBE2M^resc KBM7 cells. […]
(§2) Following this observation, it was rationalized that novel small molecule degraders can be identified in an unbiased manner, simply by searching for compounds that lose activity in the absence of UBE2M. 2000 small molecules, mostly of unknown function/target, were tested for their antiproliferative effects in human leukemia cells (KBM7). These cells were either transduced with a control sgRNA (KBM7WT), or with an sgRNA targeting UBE2M, leading to a hypomorph (deletion of six amino acids) with a functional impairment (UBE2Mmut).
(§3) Finally, a total of structurally similar analogs was tested to unravel structure-activity relationship of the identified molecules. To that end, their anti-cancer activity was assayed in WT cells, as well as KBM7 cells deficient in genes identified in the genome-wide CRISPR screens (UBE2M, CUL4B, UBE2G1). Moreover, the compounds were also tested in AsPC1 pancreatic cancer cells (WT or UBE2Mmut), MV4; 11 and Jurkat leukemia cells, Be (2) C neuroblastoma cells, and NCI-H446 lung cancer cells (Table 3 at the end of this document)
(§4) KBM7^WT, mutant KBM7 clones (UBE2M^mut, UBE2M^resc, UBE2G1^mut CUL4A^mut, CUL4B^mut), and 3-day doxycycline pretreated KBM7^iCas9_sgDDB1 cells were seeded at a cell density of 50,000 cells/mL in 96-well plates with DMSO or drug, in triplicates. Drugs used: IC020772.1/IC020772.1X, IC021313.2/IC021313.2X, T6938051/T6938051X or THZ531. Cells were treated for 3 days, after which cell viability was assessed according to manufacturer's protocol (CellTiter Glo, Promega G7570). Survival curves and EC50 values were calculated by best-fit analysis of the log 10 drug concentration to fold change of drug-treated cells over DMSO-treated cells. All survival assays included technical triplicates per sample, per experiment.

KBM7 UBE2G1mut cells = test: cells; assay type: cell-based; conditions: Homo sapiens, KBM-7, read-out: KBM7_UBE2G1_mut
Procedure: as §1, §3, §4

KBM7 WT cells = test: cells; assay type: cell-based; conditions: for EC50: Homo sapiens, KBM-7, read-out: KBM7_WT; for effect on KBM7 cells in dose-ranging viability assays: WT KBM7, 3-day treatment
Procedure: as §1, §3, §4

KBM7 CUL4Bmut cells = test: cells; assay type: cell-based; conditions: Homo sapiens, KBM-7, read-out: KBM7_CUL4B_mut
Procedure: as §1, §3, §4

cyclin K (CCNK) = molecular target: T1, cyclin K (CCNK) (Homo sapiens, UniProt Q16531+Q9NYV4); test: CCNK destabilization/degradation (expression proteomics and Western blot); assay type: cell-based; conditions: for rescue of drug-induced CCNK degradation by pretreatment: 30 min pretreatment before IC020772.1 (2.5 μM, 5h), 1 μM carfilzomib, 1 μM MLN4924, 10 μM TAK-243, 1 μM THZ531
T1 construct: endogenous in cells; host or cells: KBM7 cells (WT and UBE2M/CUL4B/UBE2G1 mutant clones)
T1 sequence (O75909 whole entry partner): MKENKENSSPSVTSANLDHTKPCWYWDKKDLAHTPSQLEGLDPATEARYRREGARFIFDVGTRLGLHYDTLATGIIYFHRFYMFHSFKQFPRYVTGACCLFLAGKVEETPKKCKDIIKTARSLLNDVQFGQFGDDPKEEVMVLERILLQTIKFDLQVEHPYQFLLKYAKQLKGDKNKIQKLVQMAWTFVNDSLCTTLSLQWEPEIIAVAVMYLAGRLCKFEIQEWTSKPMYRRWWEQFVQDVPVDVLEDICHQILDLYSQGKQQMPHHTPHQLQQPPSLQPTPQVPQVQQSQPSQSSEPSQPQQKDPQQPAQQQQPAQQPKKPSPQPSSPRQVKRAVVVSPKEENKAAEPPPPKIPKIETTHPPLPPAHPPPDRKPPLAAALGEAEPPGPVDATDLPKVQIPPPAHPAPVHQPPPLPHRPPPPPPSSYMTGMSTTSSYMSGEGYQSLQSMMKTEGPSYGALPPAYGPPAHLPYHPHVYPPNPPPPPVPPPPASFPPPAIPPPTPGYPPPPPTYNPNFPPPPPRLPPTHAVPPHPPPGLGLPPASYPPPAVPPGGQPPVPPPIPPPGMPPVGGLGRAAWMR
T1 sequence (Q9NYV4 whole entry): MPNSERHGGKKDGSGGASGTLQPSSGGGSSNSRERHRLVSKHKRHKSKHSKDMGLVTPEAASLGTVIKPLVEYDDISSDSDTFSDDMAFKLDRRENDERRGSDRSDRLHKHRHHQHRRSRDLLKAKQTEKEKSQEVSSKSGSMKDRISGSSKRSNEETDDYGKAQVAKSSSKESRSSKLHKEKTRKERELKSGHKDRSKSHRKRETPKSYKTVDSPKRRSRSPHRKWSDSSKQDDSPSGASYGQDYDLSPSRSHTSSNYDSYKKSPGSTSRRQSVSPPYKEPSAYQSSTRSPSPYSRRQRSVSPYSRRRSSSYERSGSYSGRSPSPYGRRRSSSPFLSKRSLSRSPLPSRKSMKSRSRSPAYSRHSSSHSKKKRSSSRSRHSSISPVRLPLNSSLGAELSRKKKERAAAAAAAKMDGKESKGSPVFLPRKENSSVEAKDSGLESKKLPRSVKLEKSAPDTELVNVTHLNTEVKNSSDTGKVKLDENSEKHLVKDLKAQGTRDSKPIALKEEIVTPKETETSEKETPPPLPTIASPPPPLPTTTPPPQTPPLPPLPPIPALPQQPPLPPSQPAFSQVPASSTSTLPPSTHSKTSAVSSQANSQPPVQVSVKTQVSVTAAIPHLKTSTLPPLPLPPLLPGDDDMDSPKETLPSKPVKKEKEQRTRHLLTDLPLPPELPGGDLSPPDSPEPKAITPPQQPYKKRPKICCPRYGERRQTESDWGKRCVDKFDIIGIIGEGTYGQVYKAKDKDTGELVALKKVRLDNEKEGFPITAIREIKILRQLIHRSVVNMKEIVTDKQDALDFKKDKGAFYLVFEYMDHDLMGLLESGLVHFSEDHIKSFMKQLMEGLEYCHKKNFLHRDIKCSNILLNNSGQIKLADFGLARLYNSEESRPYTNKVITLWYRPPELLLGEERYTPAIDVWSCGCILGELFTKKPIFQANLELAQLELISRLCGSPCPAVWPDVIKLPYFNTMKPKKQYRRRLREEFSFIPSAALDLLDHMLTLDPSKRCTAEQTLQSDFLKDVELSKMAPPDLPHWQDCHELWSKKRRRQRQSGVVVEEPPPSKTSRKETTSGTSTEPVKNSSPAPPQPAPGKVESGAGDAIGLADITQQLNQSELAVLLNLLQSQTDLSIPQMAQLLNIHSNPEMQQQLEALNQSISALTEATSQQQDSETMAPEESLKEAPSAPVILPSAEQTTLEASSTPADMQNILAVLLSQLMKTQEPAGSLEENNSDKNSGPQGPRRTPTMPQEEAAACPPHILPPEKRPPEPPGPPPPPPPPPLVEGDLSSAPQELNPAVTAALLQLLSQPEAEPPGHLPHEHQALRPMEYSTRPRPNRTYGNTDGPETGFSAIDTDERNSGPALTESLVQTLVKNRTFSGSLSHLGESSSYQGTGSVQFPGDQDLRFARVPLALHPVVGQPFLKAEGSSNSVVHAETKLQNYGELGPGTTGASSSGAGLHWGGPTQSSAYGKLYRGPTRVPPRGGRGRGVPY
T1 sequence (Q16531 2-1140 limits assumed): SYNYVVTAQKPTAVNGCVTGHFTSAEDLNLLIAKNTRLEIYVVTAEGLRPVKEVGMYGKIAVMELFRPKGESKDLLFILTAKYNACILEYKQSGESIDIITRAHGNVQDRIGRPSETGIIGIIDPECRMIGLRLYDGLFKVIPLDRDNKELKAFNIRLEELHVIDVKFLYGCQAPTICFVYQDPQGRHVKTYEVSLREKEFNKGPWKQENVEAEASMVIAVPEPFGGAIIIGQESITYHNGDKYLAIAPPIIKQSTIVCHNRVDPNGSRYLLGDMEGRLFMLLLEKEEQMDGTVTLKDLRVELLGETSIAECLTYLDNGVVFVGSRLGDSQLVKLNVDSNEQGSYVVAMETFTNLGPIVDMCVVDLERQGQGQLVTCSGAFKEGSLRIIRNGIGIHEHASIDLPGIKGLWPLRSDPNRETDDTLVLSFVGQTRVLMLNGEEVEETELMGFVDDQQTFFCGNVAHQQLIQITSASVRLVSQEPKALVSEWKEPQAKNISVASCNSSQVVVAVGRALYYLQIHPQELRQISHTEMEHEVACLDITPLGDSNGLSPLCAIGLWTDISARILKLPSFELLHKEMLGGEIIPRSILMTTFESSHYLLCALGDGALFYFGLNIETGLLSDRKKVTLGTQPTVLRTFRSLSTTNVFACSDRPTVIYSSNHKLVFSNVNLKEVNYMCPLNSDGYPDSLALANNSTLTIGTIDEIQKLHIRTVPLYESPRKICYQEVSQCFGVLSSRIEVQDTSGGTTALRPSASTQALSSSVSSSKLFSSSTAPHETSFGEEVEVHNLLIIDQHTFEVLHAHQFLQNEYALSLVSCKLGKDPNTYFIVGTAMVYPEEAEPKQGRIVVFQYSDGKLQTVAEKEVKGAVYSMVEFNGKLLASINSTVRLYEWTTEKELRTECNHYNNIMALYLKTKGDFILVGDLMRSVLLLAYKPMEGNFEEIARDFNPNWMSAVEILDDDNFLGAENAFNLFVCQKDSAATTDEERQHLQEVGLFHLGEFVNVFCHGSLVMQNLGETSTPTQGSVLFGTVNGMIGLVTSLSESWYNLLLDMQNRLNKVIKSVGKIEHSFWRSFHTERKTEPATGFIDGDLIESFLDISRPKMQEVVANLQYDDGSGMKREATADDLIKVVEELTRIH
T1 sequence (Q13620 whole entry partner): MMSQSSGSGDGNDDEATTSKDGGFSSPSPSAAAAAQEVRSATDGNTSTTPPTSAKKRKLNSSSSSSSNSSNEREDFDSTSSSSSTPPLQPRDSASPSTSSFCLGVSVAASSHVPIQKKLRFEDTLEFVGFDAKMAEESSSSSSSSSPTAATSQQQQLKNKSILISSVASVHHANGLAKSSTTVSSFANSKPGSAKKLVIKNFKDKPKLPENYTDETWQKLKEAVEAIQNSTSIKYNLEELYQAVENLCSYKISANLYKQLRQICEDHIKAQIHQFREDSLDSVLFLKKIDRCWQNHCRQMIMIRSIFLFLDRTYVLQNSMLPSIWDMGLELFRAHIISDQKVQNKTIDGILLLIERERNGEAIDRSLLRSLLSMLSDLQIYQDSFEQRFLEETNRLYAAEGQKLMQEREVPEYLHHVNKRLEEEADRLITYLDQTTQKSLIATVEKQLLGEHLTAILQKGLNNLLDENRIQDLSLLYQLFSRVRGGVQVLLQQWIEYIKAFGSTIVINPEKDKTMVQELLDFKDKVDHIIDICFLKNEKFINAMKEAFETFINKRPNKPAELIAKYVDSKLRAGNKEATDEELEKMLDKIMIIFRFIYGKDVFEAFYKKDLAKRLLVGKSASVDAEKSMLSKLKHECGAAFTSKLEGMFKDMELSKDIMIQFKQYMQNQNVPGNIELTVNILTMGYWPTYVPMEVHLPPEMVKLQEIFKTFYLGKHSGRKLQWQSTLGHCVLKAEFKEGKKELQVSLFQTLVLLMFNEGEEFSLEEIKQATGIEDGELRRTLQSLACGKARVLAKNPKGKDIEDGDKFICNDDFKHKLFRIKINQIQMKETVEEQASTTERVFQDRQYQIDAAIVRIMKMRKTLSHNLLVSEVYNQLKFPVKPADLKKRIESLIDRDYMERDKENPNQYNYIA
T1 sequence (P62877 whole entry partner): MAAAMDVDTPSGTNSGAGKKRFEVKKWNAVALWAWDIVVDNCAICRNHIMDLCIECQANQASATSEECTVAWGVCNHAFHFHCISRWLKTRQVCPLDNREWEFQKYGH
Procedure: (§5) The hypomorphic phenotype of the mutated UBE2M allele in KBM7 cells (KBM7 UBE2M^mut cells) was assessed. In this regard, CRISPR/Cas9-induced mutation of UBE2M inactivated CRL activity including CRL4^CRBN and CRL2^VHL. […] Additionally, CCNK destabilization by all three compounds was validated via time-resolved immunoblots wherein CCNK degradation was evident after two hours (FIG. 19c).
(§6) Subsequently, a total of 53 structurally related analogue compounds in dose-ranging viability assays in KBM7 wildtype- and UBE2M^mut cells was tested to develop a structure-activity relationship for the assayed compounds. This informed on sites amenable for derivatization of analogs (FIG. 20a), and also to the identification of structurally similar small molecules with no measurable activity that are thus suited negative controls. […] CRL activity-dependent degradation of CCNK could be rescued by pharmacologic NAE inhibition and by blocking the ubiquitin activating enzyme UBA1, particularly by pretreating the cells with 1 μM carfilzomib (Selleckchem, S2853), 1 μM MLN4924 (Selleckchem, S7109), 10 μM TAK-243 (MedChemExpress, HY-100487) or 1 μM THZ531 (MedChemExpress HY-103618) (FIG. 19d). Furthermore, treatment with the selective covalent CDK12/13 inhibitor THZ531, which binds to the ATP binding pocket of CDK12/13, rescued CCNK degradation (FIG. 19d) indicating the role of the active site of CDK12/13 for CRL activity-dependent CCNK degradation by the identified compounds (FIG. 19d).
(§7) PBS-washed cell pellets were lysed in 50 mM Tris pH 7.9, 8M Urea and 1% CHAPS and incubated with shaking at 4° C. for at least 30 min. 20 μg of supernatants were run and transferred for detection. Antibodies used: CUL1 (Santa Cruz Biotechnology, sc-1276), CUL2 (Sigma-Aldrich, SAB2501565-100), CUL3 (Cell Signaling Technology, 2759), CUL4A (Cell Signaling Technology, 2699S), CUL4B (Proteintech, 12916-1-AP), CUL5 (Santa Cruz Biotechnology, sc-373822), UBE2M (Santa Cruz Biotechnology, sc-390064), DDB1 (Cell Signaling Technology, 5428S), CCNK (Bethyl, A301-939A), CDK12 (Cell Signaling Technology, 11973S), CDK13 (Bethyl, A301-458A), RBM39 (1:500, Santa Cruz Biotechnology sc-376531), V5 (Cell Signaling Technology, 13202), Ubiquityl-Histone H2A (K119) (Cell Signaling, 8240-20). ACTIN (Sigma-Aldrich, A5441), VINCUL1N (Santa Cruz Biotechnology, sc-25336). Secondary antibodies anti-mouse/rabbit/goat (Jackson ImmunoResearch 115-035-003, 111-035-003 and 705-035-003).
(§8) Comparison of overall proteome-wide changes in KBM7 cells treated with IC020772.1 (2.5 μM), IC021313.2 (7 μM) or T6938051 (3.5 μM) for 5 h and 12h, using quantitative proteomics based on isobaric tagging.

[1] = tested on: T2, cyclin K (CCNK) (Homo sapiens); test: as above; assay type: cell-based; conditions: wild-type KBM7 cells
T2 construct: endogenous in cells; host or cells: KBM7 cells (WT and UBE2M/CUL4B/UBE2G1 mutant clones)
T2 sequence (O75909 whole entry partner): as the sequence (O75909 whole entry partner) above
T2 sequence (Q9NYV4 whole entry, further chain): as the sequence (Q9NYV4 whole entry) above
T2 sequence (Q16531 2-1140 limits assumed, further chain): as the sequence (Q16531 2-1140 limits assumed) above
T2 sequence (Q13620 whole entry partner): as the sequence (Q13620 whole entry partner) above
T2 sequence (P62877 whole entry partner): as the sequence (P62877 whole entry partner) above
Procedure: as §5, §6, §7, §8

DCAF15 = molecular target: T3, DCAF15 (Homo sapiens, UniProt Q66K64); test: DCAF15 stabilization, live-cell HiBit/LgBit bioluminescence screen; assay type: cell-based; conditions: 10 μM, 293T cells expressing HiBit-DCAF15
T3 construct: expressed in transfected cells; host or cells: 293T cells, DCAF15 knocked out, additionally transduced with LgBit
T3 sequence (Q66K64 whole entry): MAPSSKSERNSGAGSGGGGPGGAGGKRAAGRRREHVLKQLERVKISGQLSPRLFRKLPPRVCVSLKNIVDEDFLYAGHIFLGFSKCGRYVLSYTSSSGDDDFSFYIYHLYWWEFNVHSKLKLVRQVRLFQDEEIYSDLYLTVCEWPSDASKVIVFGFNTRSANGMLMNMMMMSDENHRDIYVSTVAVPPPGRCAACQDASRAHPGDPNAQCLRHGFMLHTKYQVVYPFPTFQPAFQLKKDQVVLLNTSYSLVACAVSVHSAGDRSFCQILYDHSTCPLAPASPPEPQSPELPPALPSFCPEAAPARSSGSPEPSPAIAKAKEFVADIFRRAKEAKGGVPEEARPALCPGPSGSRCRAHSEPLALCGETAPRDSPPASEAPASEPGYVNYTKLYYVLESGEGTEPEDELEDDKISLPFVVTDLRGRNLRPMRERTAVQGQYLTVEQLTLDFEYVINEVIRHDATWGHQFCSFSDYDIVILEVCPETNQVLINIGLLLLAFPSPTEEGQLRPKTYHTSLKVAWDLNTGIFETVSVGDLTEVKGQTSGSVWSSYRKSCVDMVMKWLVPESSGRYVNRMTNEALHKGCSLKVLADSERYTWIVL
Text: Subsequently, in this context, the E3 ligase substrate receptor (SR) stabilization approach was employed in order to identify novel chemical matter that can bind and chemically re-program the substrate receptor DCAF15. To be able to screen a collection of around 8000 small-molecules, a cellular system was developed that enabled monitoring of DCAF15 levels in live cells in multi-well format. To that end, DCAF15 was first knocked out in 293T cells via CRISPR/Cas9 technology. Then, DCAF15 was stably expressed as a HiBit® fusion protein in these cells. After further transducing these cells with LgBit, this allowed live-cell tracing of DCAF15 levels in 384 well format by measuring bioluminescence (FIG. 13).
In brief, cells were seeded at a concentration of 250′000 cells/ml in DMEM+10% FCS+25 mM Hepes. The luciferase substrate Endurazine was added at concentrations recommended by the manufacturer. Small-molecules were added at a concentration of 10 μM, and their effect on DCAF15 levels was assayed by continuous bioluminescent imaging (measurements were taken every 120 minutes). In total, 8000 compounds were tested.
The known DCAF15 molecular glue indisulam was used as a positive control. In brief, indisulam is known to act as a DCAF15-dependent molecular glue that binds DCAF15 and induced proximity between DCAF15 and RBM39, leading to the degradation of the latter. […]

[2] = tested on: KBM7 WT and UBE2Mmut cells; test: Primary phenotypic screen, differential viability KBM7 WT vs UBE2M mutant; assay type: cell-based, human; conditions: 10 μM and 500 nM, 3 days
Procedure: as §2
KBM7^WT and UBE2M^mut cells were treated with a compound library (2000 cytotoxic diverse small-molecules, mostly of unknown function/target). Briefly, the screening was divided in three parts 1) primary screening, 2) follow up and 3) validation. During the primary screening, cells were treated with 10 μM and 500 nM of every compound. […] After 3 days of treatment, cell viability was measured (CellTiter Glo, Promega). The screen was perform in 384-well plates (Corning 3712) and the reagent/compound dispensing system used was: Echo 520 Liquid Handler, Multidrop™ Combi Reagent Dispenser. Control compounds were included in several wells, in all the plates. Method for validation of IC021313.2, IC020822.1, IC020772.1, T6938051 as described above in (i).

Structure (SMILES): O=C(CSc1nc2ccccc2[nH]1)Nc1ccc(Cl)cn1 [Compound Z54609541, 2-((1H-benzo[d]imidazol-2-yl)thio)-N-(5-chloropyridin-2-yl) acetamide]
EC50 (UBE2M mutant KBM7 cells): 24.4 µM
EC50 (KBM7 UBE2G1mut cells): 7.6 µM
EC50 (KBM7 WT cells): 2.41 µM
EC50 (KBM7 CUL4Bmut cells): 11.9 µM

rescue of drug-induced CCNK degradation by pretreatment (cyclin K (CCNK)): rescued
effect on CCNK upon inactivation of DDB1, UBE2G1 and UBE2M (cyclin K (CCNK); CRISPR-inactivated KBM7 cells): not affected
Structure (SMILES): CN(C)C/C=C/C(=O)Nc1ccc(C(=O)N2CCC[C@@H](Nc3ncc(Cl)c(-c4c[nH]c5ccccc45)n3)C2)cc1 [THZ531, reference compound]

Structure (SMILES): CCCn1c2ccccc2c2nnc(SCC(=O)Nc3ccc(Cl)cn3)nc21 [IC020772.1X]
CCNK destabilization [1]: failed to induce pronounced CCNK destabilization
effect on KBM7 cells in dose-ranging viability assays (KBM7 WT cells): did not affect KBM7 cells

DCAF15 stabilization (relative luciferase signal over time) (DCAF15): pronounced stabilization of DCAF15
Structure (SMILES): NS(=O)(=O)c1ccc(S(=O)(=O)Nc2cccc3c(Cl)c[nH]c23)cc1 [indisulam, reference compound]

Structure (SMILES): Cc1ncsc1-c1ccc([C@H](C)NC(=O)[C@@H]2C[C@@H](O)CN2C(=O)[C@@H](NC(=O)COCCCOCCNC(=O)C[C@@H]2N=C(c3ccc(Cl)cc3)c3c(sc(C)c3C)-n3c(C)nnc32)C(C)(C)C)cc1 [ARV-771, reference compound]
anti-proliferative effect upon mutation of UBE2M (UBE2M mutant KBM7 cells; KBM7 UBE2M mutant vs WT): efficacy is significantly abrogated

Structure (SMILES): O=C(CSc1nc2ccccc2[nH]1)Nc1ccccn1 [IC021313.2X]
CCNK destabilization [1]: failed to induce pronounced CCNK destabilization
effect on KBM7 cells in dose-ranging viability assays (KBM7 WT cells): did not affect KBM7 cells

rescue of drug-induced CCNK degradation by pretreatment (cyclin K (CCNK)): rescued
Structure (SMILES): NS(=O)(=O)OC[C@@H]1C[C@@H](n2ccc3c(N[C@H]4CCc5ccccc54)ncnc32)C[C@@H]1O [MLN4924, reference compound]

Structure (SMILES): O=C(CSc1nc2ccccc2[nH]1)Nc1ccc(Br)cn1 [Compound Z201181756, 2-((1H-benzo[d]imidazol-2-yl)thio)-N-(5-bromopyridin-2-yl) acetamide]
EC50 (UBE2M mutant KBM7 cells): 34.7 µM
EC50 (KBM7 UBE2G1mut cells): 6.17 µM
EC50 (KBM7 WT cells): 1.41 µM
EC50 (KBM7 CUL4Bmut cells): 12.6 µM

rescue of drug-induced CCNK degradation by pretreatment (cyclin K (CCNK)): rescued
Structure (SMILES): CC(C)C[C@H](NC(=O)[C@H](CCc1ccccc1)NC(=O)CN1CCOCC1)C(=O)N[C@@H](Cc1ccccc1)C(=O)N[C@@H](CC(C)C)C(=O)[C@@]1(C)CO1 [carfilzomib, reference compound]

Structure (SMILES): O=C(CSc1nc2ccccc2[nH]1)Nc1ccc(Br)cn1 [IC020822.1]
hit in differential viability screen [2]: stood out in terms of fold-change significance

rescue of drug-induced CCNK degradation by pretreatment (cyclin K (CCNK)): rescued
Structure (SMILES): NS(=O)(=O)OC[C@H]1C[C@@H](Nc2ccnc3cc(-c4cccc(SC(F)(F)F)c4)nn23)[C@H](O)[C@@H]1O [TAK-243, reference compound]

Structure (SMILES): Cc1ccc(NC(=O)C2CSCN2C(=O)c2ccc(C)o2)cc1 (stereo not shown) [Compound T6938051X]
CCNK destabilization [1]: failed to induce pronounced CCNK destabilization
effect on KBM7 cells in dose-ranging viability assays (KBM7 WT cells): did not affect KBM7 cells
